# Measured values as given in publication PMC11475408, “All‐Inorganic Polyoxometalates Act as Superchaotropic Membrane Carriers” (Advanced Materials (Deerfield Beach, Fla.), 2023).
# How the values were obtained:
# protamine = assay: Supramolecular tandem assay of protamine hydrolysis (CX4/LCG); format: biochemical; details: time scale of transport experiments (10 min); 0.5 µM protamine, LCG/CX4 reporter, 10 mM Hepes pH 7.5; POM 0-500 µM
# Protocol: 5. Hydrolytic activity of [(PZrW11)2]8−
# We devised a supramolecular tandem enzyme assay[25-29] to check to which degree [(PZrW11)2]8− promotes peptide fragmentation, which has been reported to occur on a time scale of days at 60 °C.[30-31] Supramolecular tandem assay is a technique that allows real-time continuous monitoring of enzymatic activity by following a change in the concentration of a substrate or product as it competitively displaces a fluorescent reporter dye from the cavity of a macrocyclic host.
# The assay therefore relies on the differential binding of the macrocycle with the fluorescent dye, the enzymatic substrate, and the corresponding product.
# We selected p-sulfonatocalix[4]arene (CX4) as macrocyclic host and lucigenin (LCG) as fluorescent dye, since protamine […]
# conversion can be directly monitored through a decrease in fluorescence. Trypsin, which is an endopeptidase that hydrolyzes peptide bonds on the C -terminal side of the amino acid arginine ,[32-33] was used as an example, for comparison.
# Only minor hydrolysis (<10%) of protamine by the [(PZrW11)2]8− was observed on the time scale relevant for the transport […]
# [1] = Hydrolysis/stability of POMs in buffer by NMR
# Protocol: First, their long‐term (24 h and longer) fate in aqueous solution (slightly acidic and neutral) was investigated by applying the active NMR nuclei in their composition (Table S9 and Figures S24–S37, see the Supporting Information for details).
# NMR-spectroscopic characterization of identity and stability
# NMR spectroscopy for all POMs tested was performed under experimental conditions.
# [2] = CF transport assay in EYPC⊃CF vesicles (carrier activity); format: biochemical; design: key to Carrier activity: ‐ – ‐: No detectable activity at pH 5.5 and 7.4
# From the text: The capability of POMs to act as membrane carriers was explored first in large unilamellar vesicles (LUVs) loaded with carboxyfluorescein (CF).^[ [54], [55] ^] We selected […] representative cationic peptides, heptaarginine (heptaArg), heptalysine (heptaLys), protamine, and polyarginine (polyArg), as test cargos. Inside the LUVs, the CF dye was encapsulated at self‐quenching concentrations. With a suitable carrier, heptaArg can be taken up into the vesicles, bind with entrapped CF, and shuttle back to the exterior, diluting the previously quenched CF, and thereby restoring its fluorescence (Figure 1c). In the time‐resolved fluorescence experiments (Figure 2a), to test whether a particular POM acts as molecular carrier, the CF emission was continuously monitored during the addition of the inorganic carrier (t = 60 s) and after injection of the impermeable selected cargo (t = 120 s). Toward the end of the experiment (t = 600 s), the surfactant Triton X‐100 was added to release all the entrapped CF and allow normalization of the intensity data.
# A thin lipid film was prepared by evaporating a lipid solution of EYPC (egg yolk phosphatidylcholine, 25 mg) in CHCl3 (1 mL) with a stream of nitrogen and then dried in vacuo overnight. The dry film was rehydrated with 1 mL buffer (50 mM CF, 10 mM Hepes, pH 7.4 or 50 mM CF, 10 mM Tris, pH 7.4) for 30 min at room temperature, subjected to freeze–thaw cycles (7 times) and extrusions (15 times) through a polycarbonate membrane (pore size 100 nm). Extravesicular components were removed by size exclusion chromatography (NAP‐25 column Sephadex G‐25 DNA grade) with 10 mM Hepes, 107 mM NaCl, pH 7.4, or 10 mM Hepes, 107 mM NaCl, pH 7.4. Phospholipid concentration was calculated by the Stewart assay.^[ [81] ^]
# Acidic vesicles were prepared analogously but the rehydration and elution buffer were 50 mM CF, 10 mM Mes, pH 5.5 and 10 mM Mes, 107 mM NaCl, pH 5.5. respectively.
# Vesicles stock solutions (5–10 µL) were diluted with the corresponding buffer in a disposable plastic cuvette and gently stirred (total volume 2000 µL, final lipid concentration 13 µM). Carboxyfluorescein fluorescence was monitored at λ em = 517 nm (λ ex = 492 nm) as a function of time after addition of POMs at 60 s, analyte at 120 s and Triton X‐100 (24 µL 1.2% wt/vol) at 600 s to lyse the vesicles, for calibration. Fluorescence intensities were normalized to fractional emission as (1) It=It−I0/I∞−I0 where I 0 = I t before POM addition and […] after lysis. For Hill analysis, I t before lysis was defined as transport activity, Y, and plotted against POM concentration, c, and fitted to the Hill Equation (2), to afford the activity in absence of POM, Y 0, the maximal activity, Y max, the concentration needed to achieve 50% of maximal activity, EC 50, and the Hill coefficient, n (2) Y=Y0+Ymax−Y0/1+EC50/c^n
# In the transport measurements, where different carriers (POMs) are tested with the same cargo, the activator efficiency (E) is determined by their capacity to transport the impermeable cargo to the intravesicular region and is characterized by Y max, its maximal activity, and EC 50, the effective activator concentration. An ideal carrier reaches high Y max at low EC 50. To count both factors, the activator efficiency is defined as (3) E=YmaxpEC50/f were pEC 50 is the negative logarithm of the EC 50, and f a scaling factor, which was set to 20.6 to calibrate the highest (previously known) activation efficiency, E, as 10.^[ [55] ^]
# [3] = 3 mM POM, 10 mM Hepes pH 7.5, 31P NMR integration
substance,measurement,setting,value
(Et2NH2)8[{α‐P^VW^VI 11O39Zr^IV(µ‐OH)(H2O)}2]·7H2O [[(PZrW11)2]^8‒],Hydrolysis of protamine by the POM,protamine,< 10%
same,"% parent anion, Hepes pH 7.5 after 1 day",[1]; [3],99%
same,"% parent anion, Hepes pH 7.5 freshly prepared",[1]; [3],99%
same,Hydrolysis/stability pH 7.5,"[1]; 10 mM Hepes or Tris, 107 mM NaCl, pH 7.4, NMR, long-term (24 h and longer)",Stable
same,Stability at pH 7.5 by NMR (in words),"[1]; Hepes or Tris-HCl pH 7.5, 27Al, 31P or 183W NMR, fresh and aged 1-3 days",remain unchanged
same,Carrier activity,"[2]; EYPC vesicles, pH 5.5 and 7.4, cargos heptaArg, protamine, polyArg ([AlMo6]: heptaArg and protamine only)",‐ – ‐ ^k)
same,Transport activity (in words),"[2]; EYPC⊃CF vesicles, neutral pH, carrier then cargo",neither transport activity nor membrane disruption was observed
